Measurements reported in ChEMBL document CHEMBL1201862, “PubChem BioAssay data set” (2004).
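Method: 48-hour compound exposure of cells in 96-well plates, five concentrations, linear interpolation of endpoints. GI50 = concentration required for 50% inhibition of growth.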 Activity calls are given as the source filed them. Cut-off read from the data, not from the text of the source: active = GI50 up to about 1.1 µM and inactive = higher.

Experiments:
Test in all cases: inhibition of tumour cell growth, NCI panel, 48 h
[1] = tested on: A549
[2] = tested on: ACHN
[3] = tested on: BT-549
[4] = tested on: MDA-N
[5] = tested on: MOLT-4
[6] = tested on: Malme-3M
[7] = tested on: NCI-H226
[8] = tested on: NCI-H23
[9] = tested on: NCI-H460
[10] = tested on: OVCAR-5
[11] = tested on: OVCAR-8
[12] = tested on: PC-3
[13] = tested on: RPMI-8226
[14] = tested on: SF-268
[15] = tested on: SK-MEL-5
[16] = tested on: SK-OV-3
[17] = tested on: SN12C
[18] = tested on: SR
[19] = tested on: TK-10
[20] = tested on: U-251

For `COc1cc(C2c3cc4c(cc3OC(NCCc3ccccc3)C2C)OCO4)cc(OC)c1OC` (stereo not given), the GI50 [1] was 0.452 µM (active), the GI50 [2] was 1.36 µM (inactive) and the GI50 [3] was 0.617 µM (active). For the same compound, the GI50 [4] was 0.0638 µM (active), the GI50 [5] was 0.515 µM (active) and the GI50 [6] was 0.231 µM (active). For the same compound, the GI50 [7] was 0.871 µM (active), the GI50 [8] was 0.413 µM (active) and the GI50 [9] was 0.418 µM (active). For the same compound, the GI50 [10] was 1.75 µM (inactive), the GI50 [11] was 0.441 µM (active) and the GI50 [12] was 0.336 µM (active). For the same compound, the GI50 [13] was 0.319 µM (active), the GI50 [14] was 0.736 µM (active) and the GI50 [15] was 0.224 µM (active). The GI50 [16] was 0.397 µM (active), the GI50 [17] was 0.698 µM (active) and the GI50 [18] was 0.174 µM (active). For the same compound, the GI50 [19] was 26.5 µM (inactive) and the GI50 [20] was 0.348 µM (active).
With `OC1C2[C@@H](O)CCCN2C[C@@H](O)[C@H]1O` (stereo not given in full) the GI50 [1] was > 100 µM (inactive), the GI50 [2] was > 100 µM (inactive) and the GI50 [3] was > 100 µM (inactive). For the same compound, the GI50 [4] was > 100 µM (inactive), the GI50 [5] was > 100 µM (inactive) and the GI50 [6] was > 100 µM (inactive). For the same compound, the GI50 [7] was > 100 µM (inactive), the GI50 [8] was > 100 µM (inactive) and the GI50 [9] was > 100 µM (inactive). For the same compound, the GI50 [10] was > 100 µM (inactive), the GI50 [11] was > 100 µM (inactive) and the GI50 [12] was > 100 µM (inactive). For the same compound, the GI50 [13] was > 100 µM (inactive), the GI50 [14] was > 100 µM (inactive) and the GI50 [15] was > 100 µM (inactive). The GI50 [16] was > 100 µM (inactive), the GI50 [17] was > 100 µM (inactive) and the GI50 [18] was > 100 µM (inactive). For the same compound, the GI50 [19] was > 100 µM (inactive) and the GI50 [20] was > 100 µM (inactive).
`CCCCCC/C=C\CCCCCCCCCC1=CC(=O)C=C(OC)C1=O` [IRISQUINONE A] was tested, and the GI50 [1] was 4.06 µM (inactive), the GI50 [2] was 3.18 µM (inactive) and the GI50 [3] was 2.16 µM (inactive). The GI50 [4] was 6.5 µM (inactive), the GI50 [5] was 3.79 µM (inactive) and the GI50 [6] was 12.3 µM (inactive). The GI50 [7] was 2.52 µM (inactive), the GI50 [8] was 3.37 µM (inactive) and the GI50 [9] was 2.72 µM (inactive). The GI50 [10] was 5.6 µM (inactive), the GI50 [11] was 0.593 µM (active) and the GI50 [12] was 1.81 µM (inactive). The GI50 [13] was 2.21 µM (inactive), the GI50 [14] was 5.93 µM (inactive) and the GI50 [15] was 2.54 µM (inactive). The GI50 [16] was 4.36 µM (inactive), the GI50 [17] was 3.03 µM (inactive) and the GI50 [18] was 2.72 µM (inactive). The GI50 [19] was 6.05 µM (inactive) and the GI50 [20] was 0.713 µM (active).
